Measurements published in the NIST ThermoML archive (doi:10.1016/j.fluid.2006.07.013).

Experiment: xn = mol fraction of the nth substance listed

CC(C)COC(=O)CCCCC(=O)OCC(C)C [diisobutyl adipate] + O=C=O
Details | mass density [kg/m3]
294.75 K, Liquid, Volume and mass of phase, x1 = 0.11 | 807
295.25 K, Liquid, Volume and mass of phase, x1 = 0.039 | 795
298.95 K, Liquid, Volume and mass of phase, x1 = 0.11 | 805
302.75 K, Liquid, Volume and mass of phase, x1 = 0.096 | 814
304.65 K, Liquid, Volume and mass of phase, x1 = 0.11 | 805
305.35 K, Gas, volume and mass of phase, x1 = 0.011 | 702
305.75 K, Liquid, Volume and mass of phase, x1 = 0.039 | 764
308.85 K, Liquid, Volume and mass of phase, x1 = 0.11 | 791
310.35 K, Liquid, Volume and mass of phase, x1 = 0.064 | 793
311.05 K, Gas, volume and mass of phase, x1 = 0.011 | 667
311.25 K, Liquid, Volume and mass of phase, x1 = 0.161 | 865
311.95 K, Liquid, Volume and mass of phase, x1 = 0.592 | 813
312.15 K, Liquid, Volume and mass of phase, x1 = 0.282 | 853
314.45 K, Liquid, Volume and mass of phase, x1 = 0.11 | 789
316.85 K, Liquid, Volume and mass of phase, x1 = 0.039 | 739
322.15 K, Liquid, Volume and mass of phase, x1 = 0.096 | 800
322.55 K, Liquid, Volume and mass of phase, x1 = 0.11 | 791
323.65 K, Liquid, Volume and mass of phase, x1 = 0.282 | 832
329.95 K, Gas, volume and mass of phase, x1 = 0.011 | 639
330.75 K, Liquid, Volume and mass of phase, x1 = 0.11 | 766
332.65 K, Liquid, Volume and mass of phase, x1 = 0.039 | 732
332.75 K, Liquid, Volume and mass of phase, x1 = 0.592 | 829
337.45 K, Liquid, Volume and mass of phase, x1 = 0.282 | 821
342.05 K, Liquid, Volume and mass of phase, x1 = 0.11 | 756
343.35 K, Liquid, Volume and mass of phase, x1 = 0.064 | 762
345.25 K, Liquid, Volume and mass of phase, x1 = 0.039 | 702
347.35 K, Liquid, Volume and mass of phase, x1 = 0.096 | 768
350.15 K, Liquid, Volume and mass of phase, x1 = 0.282 | 810
351.35 K, Liquid, Volume and mass of phase, x1 = 0.592 | 819
353.25 K, Liquid, Volume and mass of phase, x1 = 0.161 | 791
356.25 K, Liquid, Volume and mass of phase, x1 = 0.11 | 740
357.45 K, Gas, volume and mass of phase, x1 = 0.011 | 558
357.75 K, Liquid, Volume and mass of phase, x1 = 0.039 | 675
360.85 K, Liquid, Volume and mass of phase, x1 = 0.064 | 724
363.05 K, Liquid, Volume and mass of phase, x1 = 0.282 | 800
366.65 K, Liquid, Volume and mass of phase, x1 = 0.039 | 660
369.85 K, Liquid, Volume and mass of phase, x1 = 0.096 | 731
370.95 K, Liquid, Volume and mass of phase, x1 = 0.592 | 807
371.25 K, Liquid, Volume and mass of phase, x1 = 0.11 | 723
371.55 K, Liquid, Volume and mass of phase, x1 = 0.282 | 791
376.85 K, Gas, volume and mass of phase, x1 = 0.039 | 638
378.45 K, Gas, volume and mass of phase, x1 = 0.011 | 518
380.95 K, Liquid, Volume and mass of phase, x1 = 0.161 | 760
381.65 K, Liquid, Volume and mass of phase, x1 = 0.064 | 687
383.95 K, Liquid, Volume and mass of phase, x1 = 0.282 | 776
391.15 K, Liquid, Volume and mass of phase, x1 = 0.592 | 790
392.25 K, Liquid, Volume and mass of phase, x1 = 0.096 | 696
400.05 K, Gas, volume and mass of phase, x1 = 0.064 | 655
400.55 K, Liquid, Volume and mass of phase, x1 = 0.282 | 760
401.45 K, Gas, volume and mass of phase, x1 = 0.039 | 588
401.65 K, Liquid, Volume and mass of phase, x1 = 0.11 | 681
404.55 K, Gas, volume and mass of phase, x1 = 0.011 | 471
408.05 K, Liquid, Volume and mass of phase, x1 = 0.161 | 721
409.85 K, Liquid, Volume and mass of phase, x1 = 0.592 | 777
419.65 K, Liquid, Volume and mass of phase, x1 = 0.282 | 740
420.05 K, Liquid, Volume and mass of phase, x1 = 0.096 | 651
421.25 K, Gas, volume and mass of phase, x1 = 0.064 | 617
421.85 K, Liquid, Volume and mass of phase, x1 = 0.161 | 706
423.15 K, Liquid, Volume and mass of phase, x1 = 0.592 | 772
423.65 K, Liquid, Volume and mass of phase, x1 = 0.11 | 650
424.65 K, Gas, volume and mass of phase, x1 = 0.039 | 541
